The source of these data is paper PMC11154709, “4S-fluorination of ProB29 in insulin lispro slows fibril formation” (The Journal of Biological Chemistry, 2024).

Assay [1] concerns the target reversible monomer-dimer equilibrium. To be noted: read-out: Kd (monomer-dimer), previously reported; cited from earlier work. The source says:
The secondary structure of each insulin lispro variant was probed by circular dichroism spectroscopy. […] All lispro samples were further analyzed by analytical ultracentrifuga ...

The test system of a further assay is diabetic mice. Kind of assay: Reduction of blood glucose in diabetic mice. The assay is classed as in vivo. The following applies: 5 to 10% of the standard injection (3.5 and 1.75 mg kg-1 as printed in SI), commercial Humalog, subcutaneous, STZ-diabetic male NODscid mice 15-18 week old; mean ± SD of 4 biological replicates (Fig. S2). The procedure: To verify bioactivity, lispro variants were injected subcutaneously into diabetic mice, and blood glucose was monitored over 2.5 h. Mouse models allow determination of activity but not time to onset of action ([27]). […] As expected, all lispro variants retained activity (Fig. 2A).
Figure 2 Biological activity and CD spectroscopy of lispro variants.A, lispros were injected subcutaneously into diabetic mice, and blood glucose was measured over time after injection. The data presented here represent the mean ± SD of 3 to 6 biological replicates. B–E, far-UV circular dichroism spectra (60 μM lispro in […] phosphate buffer, pH 8.0). […] 4R-F, 4R-fluoroproline; 4S-F, 4S-fluoroproline.
Experiments were conducted according to procedures approved by the Institutional Animal Care and Use Committee at the City of Hope. Adult (8–12 week old) male NODscid mice (Jackson Laboratory; stock # 001303) were injected intraperitoneally for three consecutive days with freshly prepared streptozotocin (45 mg kg^−1 body weight, suspended in 100 mM sodium citrate buffer, pH 4.5); diabetes was confirmed by the detection of high glucose levels (200–600 mg dL^−1) as measured by a glucomonitor (Freestyle, Abbott Diabetes Care). […] Blood glucose was measured from blood sampled from the lateral tail vein. […]
into the matrix solution (α -cyanohydroxycinnamic acid in 50% ACN, 0.1% TFA) and analyzed by […]

For the substance “insulin lispro: fast-acting insulin with inversion of the residues ProB28 and LysB29; Humalog, Eli Lilly [reference compound]”, the Kd in assay [1] is 1100 µM. Besides, in the assay with diabetic mice, the “reduction of blood glucose at lower lispro doses” value was “did not similarly reduce blood glucose in diabetic mice”.
